{"source": "patent US4308249A", "about": "“Radiopharmaceutical complexes of N-(tri-substituted alkyl)-iminodiacetic acids” (priority 1979, dated 1981)", "key": {"[1]": {"assay": "Disposition of radioactivity in female beagle dog after i.v. chelate, Anger camera scintigraphy (Tables 2 and 3, FIG. 1)", "type": "in vivo", "design": "key to Relative Distribution of Chelate: Vascular / Relative Distribution of Chelate: Liver / Relative Distribution of Chelate: Gallbladder: -: no statistically significant measured radioactivity; ±: relative amounts of measured radioactivity; +: relative amounts of measured radioactivity; ++: relative amounts of measured radioactivity; +++: the maximum measured radioactivity", "details": "for Relative Distribution of Chelate: Gallbladder / Relative Distribution of Chelate: Liver / Relative Distribution of Chelate: Vascular: i.v.", "protocol": "(§1) This procedure used with the rabbit was repeated with additional anesthetized animals; a female beagle dog weighing 9.25 kilograms, and a female rhesus monkey weighing 7.9 kilograms. Again 0.1 to 1.0 milliliter of the solution containing 0.5 to 5 milligrams of the same chelate and prepared as in Examples 1 and 2 was administered in each case. One difference was that unlike the case of the rabbit, the chelate solution was injected intravenously in the saphenous vein of the dog or monkey. In separate tests with the female beagle, (1) a solution having 1.13 mCi of the chelate and (2) a solution having a 3.10 mCi of the chelate were administered, and the disposition of radioactivity in the dog was monitored for one hour and 3 hours, respectively. In addition, FIG. 1 represents results of the test involving administration of 3.10 mCi of radioactive chelate to the female beagle dog.\n(§2) At various times after administration of a solution of a chelate of this invention which are indicated in Tables 1-4, scintiscan photographs and video tape recordings were taken of the rabbit, female beagle and monkey using the Anger camera. This instrument was a Pho-Gamma LFOV Scintillation Camera System, Model 6413, fitted with a Model 3137 Vari-Back Camera, a Model 3122 Data-Store/Playback System and a Model 27851 Analog-Digital/Digital-Analog Converter (all Searle Radiographics, Inc.). This entire system was interfaced with a Xerox 530 computer (Xerox Corp., Minneapolis, Minn.) which was programmed to record net counts per unit of time and percents of total counts in individual organs and to plot organ radioactivity versus time and to separate the radioactivity of the gallbladder from the radioactivity of the liver. The camera was operated with a 140 keV high resolution Type II converging collimator using a 20 percent technetium-99 m window. Generally 400,000 counts were accumulated on each scintiscan using both video tape and self-developing film, with the animal in the full ventral position. The photographs represented a visualization of the anatomic relationships in the hepatobiliary system.\n(§3) The video tape was processed by computer for quantification of the distribution of the technetium-99 m chelate radioactivity in the organs of the animals. Tables 1-4 contain semi-quantitative representations of the distribution of radioactivity in the organs of the test animals calculated from the scintiscans. In Tables 1-4, (-), (±), (+), (++) and (+++) indicate relative amounts of measured radioactivity ranging from (-) for no statistically significant measured radioactivity to (+++) for the maximum measured radioactivity.\nThe disappearance of the radioactive chelate from the liver and its appearance in the gallbladder of the female beagle as well as the presence of the radioactive chelate in the total hepatobiliary system of the female beagle was calculated from video tape measurements by the computer and are plotted as percentages of total radioactivity administered in the form of the radioactive chelate versus time after administration in FIG. 1. At about 120 minutes after administration, about 75 percent of the total radioactivity administered was concentrated in the gallbladder, and in excess of 90 percent of the total dose of the radioactive chelate was in the hepatobiliary system. Approximately 50 percent of the radioactive chelate in the total hepatobiliary system had passed from the liver into the gallbladder within about 45 minutes after administration."}, "[2]": {"assay": "Disposition of radioactivity in female rhesus monkey after i.v. chelate, Anger camera scintigraphy (Table 4)", "type": "in vivo", "design": "key to Relative Distribution of Chelate: Vascular / Relative Distribution of Chelate: Liver / Relative Distribution of Chelate: Gallbladder / Relative Distribution of Chelate: Intestine: -: no statistically significant measured radioactivity; ±: relative amounts of measured radioactivity; +: relative amounts of measured radioactivity; ++: relative amounts of measured radioactivity; +++: the maximum measured radioactivity", "protocol": "as §1\n(§4) In the test using the female rhesus monkey, 0.1 to 1.0 milliliter of a solution of the chelate of technetium-99 m and N-(3-cyano-3,3-diphenylpropyl)-iminodiacetic acid prepared as in Examples 1 and 2 and having a radioactivity of 1.23 mCi and containing 0.5 to 5 milligrams of the same chelate was administered and the disposition of the radioactive material in the monkey was monitored for one hour.\nas §2, §3"}, "[3]": {"assay": "Whole blood clearance of radioactivity in male mongrel dog, gamma spectrometer (FIG. 3)", "type": "in vivo", "protocol": "The procedures for injecting and taking and analyzing blood samples from the female beagle were repeated with a male mongrel dog weighing 14.1 kilograms, and the results are presented in FIG. 3. In this case, a sample of 0.1 to 1.0 milliliter of a solution of the chelate of technetium-99 m and N-(3-cyano-3,3-diphenylpropyl)-iminodiacacetic acid prepared as in Examples 1 and 2 and having a radioactivity of 3.08 mCi and containing 0.5 to 5 milligrams of the chelate was administered. In this case, the radioactivity of one milliliter samples of whole blood was measured.\n(§5) The gamma spectrometer employed was a Model 1185 Gamma Scintillation Spectrometer (Searle Analytic Inc., Des Plaines, Ill.). One milliliter samples of plasma or whole blood were analyzed for technetium-99 m, and samples were counted for 1 minute. FIGS. 2 and 3 show the radioactivity present in the plasma or whole blood, respectively, versus the time in hours after administration of the chelate to the animals. As determined by the computer, curves A and B were the best fitting curves passing through the plots of experimentally measured radioactivities. […] This illustrates that, after being distributed throughout the body the chelate of this invention is cleared relatively quickly from the […]."}, "[4]": {"assay": "Organ radioactivity and imaging in test animals (all species) after i.v. chelate", "type": "in vivo, rabbit, dog, monkey", "protocol": "(§6) A volume of a solution of the chelate of technetium-99 m and N-(3-cyano-3,3-diphenylpropyl)-iminodiacetic acid prepared as in Examples 1 and 2 in the range of 0.1 to 1.0 milliliter and having a radioactivity of 1.2 millicuries and containing 0.5 to 5 milligrams of the chelate was administered intravenously to an anesthetized New Zealand rabbit weighing about 3 kilograms using a 1 milliliter tuberculin syringe connected to a #23 gauge indwelling cannula inserted into a marginal ear vein. The rabbit was positioned in a full ventral position for four hours during which time the disposition of the radioactivity in the rabbit in this position was monitored using a computer-augmented Anger camera.\nas §1, §4, §2"}, "[5]": {"assay": "Disposition of radioactivity in rabbit after i.v. chelate, Anger camera scintigraphy (Table 1)", "type": "in vivo, New Zealand rabbit", "design": "key to Relative Distribution of Chelate: Vascular / Relative Distribution of Chelate: Liver / Relative Distribution of Chelate: Gallbladder / Relative Distribution of Chelate: Intestine: -: no statistically significant measured radioactivity; ±: relative amounts of measured radioactivity; +: relative amounts of measured radioactivity; ++: relative amounts of measured radioactivity; +++: the maximum measured radioactivity", "protocol": "as §6, §2, §3"}, "[6]": {"assay": "Urinary excretion of radioactivity in male mongrel dog", "type": "in vivo", "details": "through 2 hours after administration"}, "[7]": {"assay": "Plasma clearance of radioactivity in female beagle, gamma spectrometer (FIG. 2)", "type": "in vivo, female beagle dog", "protocol": "In addition, periodically during the time of monitoring the distribution of radioactivity in the female beagle, blood samples were removed from the jugular vein of the animal and collected in vacuum tubes containing the disodium salt of ethylendiaminetetraacetic acid and the radioactivity of one milliliter samples of plasma was measured in a gamma spectrometer.\nas §5"}, "[8]": {"details": "female beagle, about 120 minutes after administration"}, "[9]": {"details": "female beagle, 1.13 mCi (Table 2), minutes after administration: 1, 10, 20, 30, 40, 50, 60"}, "[10]": {"details": "female beagle, 3.10 mCi (Table 3), minutes after administration: b87 10, b88 25, b89 35, b90 65, b91 102, b92 160"}, "[11]": {"details": "i.v., 1.23 mCi, minutes after administration: 1, 10, 20, 30, 40, 50, 60"}, "[12]": {"details": "test animals, first 3 hours after administration"}, "[13]": {"details": "i.v., 1.2 mCi, minutes after administration: 0.5, 3, 10, 20, 30, 60, 120, 180, 240"}, "[14]": {"details": "within 120 minutes after administration"}}}
{"substance": "chelate of technetium-99 m and N-(3-cyano-3,3-diphenylpropyl)-iminodiacetic acid", "values": [{"measurement": "administered chelate appeared in the liver", "setting": "[1]; dog, within 15 minutes after administration", "result": "more than 70%"}, {"measurement": "appearance of the chelate in the gallbladder compared with rabbit", "setting": "[1]; female beagle", "result": "slower than in the case of the rabbit"}, {"measurement": "excretion of the chelate from the gallbladder into the intestine compared with rabbit or monkey", "setting": "[1]; female beagle", "result": "slower in the female beagle than either in the rabbit or monkey"}, {"measurement": "route of clearance from the vascular system", "setting": "[1]; female beagle", "result": "exclusively by the liver and biliary excretion"}, {"measurement": "total dose of the radioactive chelate in the hepatobiliary system", "setting": "[1]; [8]", "result": "> 90", "unit": "%"}, {"measurement": "total radioactivity administered concentrated in the gallbladder", "setting": "[1]; [8]", "result": "about 75%"}, {"measurement": "Relative Distribution of Chelate: Gallbladder", "setting": "[1]; [9]", "result": "- and + and ++ and +++"}, {"measurement": "Relative Distribution of Chelate: Liver", "setting": "[1]; [9]", "result": "++ and +++ and +"}, {"measurement": "Relative Distribution of Chelate: Vascular", "setting": "[1]; [9]", "result": "++ and -"}, {"measurement": "Relative Distribution of Chelate: Gallbladder", "setting": "[1]; [10]", "result": "- and + and ++ and +++"}, {"measurement": "Relative Distribution of Chelate: Liver", "setting": "[1]; [10]", "result": "+++ and ++ and + and ± and -"}, {"measurement": "Relative Distribution of Chelate: Vascular", "setting": "[1]; [10]", "result": "+ and -"}, {"measurement": "radioactive chelate in the total hepatobiliary system passed from the liver into the gallbladder", "setting": "[1]; female beagle, within about 45 minutes after administration", "result": "Approximately 50%"}, {"measurement": "administered radioactivity accumulated in the hepatobiliary system", "setting": "[1]; female dog, during the first 30 minutes", "result": "more than 85%"}, {"measurement": "appearance of the chelate in the gallbladder compared with rabbit", "setting": "[2]", "result": "slower than in the case of the rabbit"}, {"measurement": "route of clearance from the vascular system", "setting": "[2]", "result": "exclusively by the liver and biliary excretion"}, {"measurement": "Relative Distribution of Chelate: Gallbladder", "setting": "[2]; [11]", "result": "- and +"}, {"measurement": "Relative Distribution of Chelate: Intestine", "setting": "[2]; [11]", "result": "- and + and ++ and +++"}, {"measurement": "Relative Distribution of Chelate: Liver", "setting": "[2]; [11]", "result": "+++ and ++ and +"}, {"measurement": "Relative Distribution of Chelate: Vascular", "setting": "[2]; [11]", "result": "+ and -"}, {"measurement": "clearance kinetics", "setting": "[3]", "result": "bi-exponential decay"}, {"measurement": "half time of distributive phase of clearance", "setting": "[3]; 3.08 mCi", "result": 0.13, "unit": "h"}, {"measurement": "half time of elimination phase of clearance", "setting": "[3]; 3.08 mCi", "result": 3.5, "unit": "h"}, {"measurement": "distribution throughout the cardiovascular system", "setting": "[4]; after intravenous administration", "result": "rapidly distributed throughout the cardiovascular system"}, {"measurement": "imaging of liver and gallbladder", "setting": "[4]; all species, first 3 hours after administration", "result": "in all species the conformation of these organs was easily seen and distinguished"}, {"measurement": "urinary excretion", "setting": "[4]; in vivo", "result": "virtually no urinary excretion"}, {"measurement": "ratio of measured radioactivity in the gallbladder to measured background radioactivity", "setting": "[4]; [12]", "result": "150-200 to 1"}, {"measurement": "ratio of measured radioactivity of the liver to measured background radiation", "setting": "[4]; [12]", "result": "10-20 to 1"}, {"measurement": "route of clearance from the vascular system", "setting": "[5]", "result": "solely by the liver and biliary excretion"}, {"measurement": "time to appearance of chelate in the gallbladder", "setting": "[5]", "result": "≤ 3", "unit": "min"}, {"measurement": "Relative Distribution of Chelate: Gallbladder", "setting": "[5]; [13]", "result": "- and + and ++"}, {"measurement": "Relative Distribution of Chelate: Intestine", "setting": "[5]; [13]", "result": "- and + and ++ and +++"}, {"measurement": "Relative Distribution of Chelate: Liver", "setting": "[5]; [13]", "result": "+++ and ++ and + and ± and -"}, {"measurement": "Relative Distribution of Chelate: Vascular", "setting": "[5]; [13]", "result": "++ and -"}, {"measurement": "radioactivity of heart, aorta, kidneys and liver", "setting": "[5]; within 0.5 minutes after administration", "result": "strongly radioactive"}, {"measurement": "amount in the gallbladder", "setting": "[5]; [14]", "result": "a relatively small amount"}, {"measurement": "amount of chelate in the intestine", "setting": "[5]; [14]", "result": "the bulk of the chelate"}, {"measurement": "radioactivity in the hepatic parenchyma", "setting": "[5]; [14]", "result": "no measurable radioactivity"}, {"measurement": "total radioactivity administered found in the urine", "setting": "[6]", "result": "less than 0.5%"}, {"measurement": "clearance kinetics", "setting": "[7]", "result": "bi-exponential decay"}, {"measurement": "half time of distributive phase of clearance", "setting": "[7]", "result": 0.1, "unit": "h"}, {"measurement": "half time of elimination phase of clearance", "setting": "[7]", "result": 1.5, "unit": "h"}]}
